Entries after “also recorded” stand apart in the source; their conditions may differ.
Assays:
[1] = In situ calcium ion-selective electrode (ISE) measurement of COM crystallization; settings: for percent reduction in COM growth rate: 20 μg/ml additive, supersaturated calcium oxalate S=5.4, stirred, ISE slope in first 40 min vs control; for increase in peptide efficacy on replacing L-Ala spacer with L-Asp binder (relative to peptide D7): ISE, 20 μg/ml, series D7, D8, D9
Protocol: The COM growth rate was measured as the slope (dCa/dt) of decreasing Ca^2+ concentration within the first 40 min of crystallization. […] The percent reduction in COM growth rate was calculated by comparing the ISE slopes of peptides and control using the formula, Percent Reduction=[1−(dCa/dt)peptide/(dCa/dt)control]×100%. Data are averages of 2 or 3 measurements (error bars equal two standard deviations);
COM crystals for bulk crystallization studies were synthesized using a reported procedure that produces micron-sized crystals with large basal (100) surfaces. COM crystals prepared with molar composition 0.7 mM CaCl2: 0.7 mM Na2C2O4: 150 mM NaCl are referred to as the control. Growth solutions prepared with peptides used 20 μg/ml of the additive (unless otherwise stated).
As such, measurements reported herein were conducted at a single peptide concentration (20 μg/ml) to assess COM growth inhibition. To facilitate comparison of peptides in Table 1, Applicants calculated the percent reduction in COM growth rate using the relative difference in ISE slopes (units of ppm Ca^2+ per time) for peptide and control samples during the first 40 min of crystallization.
The slope of ISE curves (FIG. 2A) is the temporal change in free Ca^2+ concentration due to COM nucleation (primary and secondary) and crystal growth. Deconvoluting these two processes (nucleation and growth) from ISE data is nontrivial, particularly if one wishes to extract detailed kinetic information of COM growth rates. […] In the current study, the distinct advantage of ISE compared to more traditional approaches is its ease of use and the rapid time for data acquisition that enables high-throughput analysis of large peptide libraries.
A quantitative comparison of peptide efficacy for inhibiting COM crystallization was performed using in situ ISE measurements. The percent inhibition in COM growth rate was calculated using the relative difference in ISE slopes in the presence of 20 μg/mL peptide. […] The effect of Asp with Glu in peptide sequences was measured on COM growth inhibition (Table 2).

[2] = Bulk crystallization studies of COM crystal size and habit (optical microscopy, SEM, AFM); settings: for COM crystal habit / morphology: bulk crystallization with 20 μg/ml peptide
Protocol: FIGS. 4A-4B show macroscopic characterization of COM crystals from bulk crystallization in solutions of 0.5 mM CaC2O4 and 20 μg/ml peptide. Optical microscopy was used to measure: Percent distribution of elongated hexagonal platelet (shaded bars) and diamond platelet (pattern bars) crystal morphologies (FIG. 4A); and length of the COM (100) basal surface measured along the direction (i.e. apical tip-to-tip distance) for hexagonal and diamond morphologies (FIG. 4B). Data in (FIG. 4A) and (FIG. 4B) are the average of three separate crystallization experiments performed at 60° C. for 3 days (error bars equal one standard deviation). Data for peptide D4 (diamond habit) was omitted based on too few crystals for statistical analysis;
COM crystals for bulk crystallization studies were synthesized using a reported procedure that produces micron-sized crystals with large basal (100) surfaces. COM crystals prepared with molar composition 0.7 mM CaCl2: 0.7 mM Na2C2O4: 150 mM NaCl are referred to as the control. Growth solutions prepared with peptides used 20 μg/ml of the additive (unless otherwise stated). The crystals were characterized by optical microscopy using a Leica DM2500-M microscope, scanning electron microscope (SEM) using a FEI 235 Dual-Beam Focused Ion-beam instrument, atomic force microscopy (AFM) using an Asylum MFP-3D-SA instrument (Santa Barbara, Calif.), and a calcium ion-selective electrode (ISE, ThermoScientific).
ISE measurements can be used to screen peptide efficacy, but provide little information regarding the specificity of peptide binding to different surfaces of COM crystals. To this end, Applicants used a second analysis step to identify the effect of peptides on COM crystal size and habit. The influence of the peptide library on macroscopic properties of COM crystals was assessed using bulk crystallization studies and optical and scanning electron microscopy to characterize COM crystals grown in the presence of peptides. In vitro, COM crystallization yields elongated hexagonal platelets with {100} basal surfaces bounded by {010} and crystallographically equivalent {121} apical surfaces (FIG. 3A). […] Applicants observed that multiple peptides in the library reduced growth along the directions, which decreased the crystal aspect ratio (length-to-width) and shifted the morphology from hexagonal to diamond platelets. This change in crystal habit can be attributed to the preferential binding of peptides to COM {121} surfaces, which slows growth along the naturally fast growth directions within the (100) plane.
To more systematically assess the surface topography of COM crystals, Applicants used atomic force microscopy (AFM) to probe the effect of peptides on COM (100) surface roughness. Crystals extracted from control and peptide D5 batches were prepared on AFM sample disks and imaged in air. The RMS roughness for (100) surfaces of hexagonal-shaped crystals from the control and test peptide D5 were approximately 1.0 and 4.3 nm, respectively.
Crystal batches prepared in bulk studies were analyzed using optical microscopy to quantify changes in COM crystal size and aspect ratio. […] Although there were clear differences in the percent population of diamond-shaped crystals among peptides tested in this study, Applicants observed that the size of diamond crystals were generally the same, irrespective of peptide sequence (FIG. 4B). The majority of COM hexagonal platelets in peptide samples had similar size and aspect ratio as the control (here Applicants only report the length of COM crystals in FIG. 4B). A notable exception, however, was peptide D4, which produced a 22% increase in the length-to-width aspect ratio of COM hexagonal crystals, and an increase in the length from 35 μm (control) to 75 μm (peptide D4).

[3] = High-throughput colorimetric calcium depletion assay (crystallization half-time); settings: 37° C., crystallization volume 600 μL, shaking; logistic fit
Protocol: Free calcium concentration in the crystallization solution was measured by a colorimetric assay using Quantichrome DICA 500 Calcium assay kit (BioAssay Systems, Hayward, Calif.). Standard solutions (0, 0.1, 0.2, 0.3, 0.4, 0.5, and 1 mM) were prepared using calcium solutions provided with the kit. Detection reagent was prepared by mixing equal volumes of reagent A and reagent B according to manufacturer's instructions. A 10 μL sample was withdrawn from the top of each crystallization well without disturbing the bottom and dispensed into a 96-well microplate. 100 μL of detection reagent was added to each well and incubated for 3 minutes at room temperature. The absorbance was measured at 612 nm using Biotek Synergy H4 microplate reader (BioTek, Winooski, Vt.). Calcium concentration was determined using a calibration curve prepared from standard calcium solutions.
Time course of depletion of free calcium in the crystallization solution, normalized to the initial concentration, was fitted to a nonlinear logistic function using OriginPro Software (Origin Lab, Northhampton, Mass.). The logistic function relating calcium concentration to time is given by
where [Ca]t is the normalized calcium concentration at time t, A1 is the normalized initial supersaturation concentration (i.e at t=0), A2 is the normalized equilibrium concentration (i.e. at t=∞), p is the hill coefficient which represents slope of the curve at midpoint, and t1/2 is the crystallization half-time (CHT), defined as the time at which crystallization is 50% complete (i.e. [Ca]t1/2=[…]). A1 was fixed at 1, and A2, p and t1/2 were obtained from fitting the data to equation 1. CHT was used as a measure of inhibition potentials of the peptides. A one-way ANOVA in combination with Tukey post hoc test at p<0.05 level was used to probe statistical significance. Applicants' studied the effects of experimental parameters including volume, shaking and temperature on crystallization in designing a high-throughput screening assay. Applicants have shown the logistic model effectively represents the three phases: induction, crystal growth and equilibrium observed in our setup, and CHT (t1/2) can be used as a measure of efficacy of potential crystal growth modifiers. The peptide library screened comprised of Asp and Ala residues (peptides D1-D13) at optimized assay conditions of 37° C., crystallization volume of 600 μL in a shaking environment. […] The high throughput of the assay provides the opportunity to assess the growth modulation potential of crystal growth modifiers at varying modifier concentrations, supersaturations and ionic strengths with relative ease. […] Finally, the assay can be translated to other crystallization systems in a relatively straightforward fashion for rational design and discovery of growth modifiers for specific applications.

[4] = Calcium ISE measurements of COM growth at room temperature, Glu-Ala peptide library
[5] = ISE slopes in the presence of 20 μg/mL peptide, comparison X = D vs X = E

In the case of “A-E-A-A-A-E-E-A-A-A-E-A-A-A-E-E-A-A (AEAAAEEAAAEAAAEEAA; Synthesized Calcium oxalate monohydrate inhibitory polypeptide) [E5]”, the “% inhibition” value [1, 4] was 36 ± 21% and the “% inhibition” value [1, 5] was 36 ± 21%.

For “A-E-A-A-E-A-A-A-E-A-A-E-E-A-A-E-A-A (AEAAEAAAEAAEEAAEAA; Synthesized Calcium oxalate monohydrate inhibitory polypeptide) [E6]”, the “% inhibition” value [1, 4] was 52 ± 16%, the “% inhibition” value [1, 5] was 52 ± 16% and the “COM crystal habit / morphology” value ([2]; SEM) was “polydisperse distribution of crystals; also recorded: less effective than E7”.

In the case of “A-E-A-A-E-A-A-E-A-A-E-A-A-E-A-A-E-A (AEAAEAAEAAEAAEAAEA; Synthesized Calcium oxalate monohydrate inhibitory polypeptide) [E3]”, the “% inhibition” value [1, 5] was 40 ± 18%.

With “A-E-A-A-E-E-A-A-A-A-A-A-E-A-A-E-A-A (AEAAEEAAAAAAEAAEAA; Synthesized Calcium oxalate monohydrate inhibitory polypeptide) [E7]” the “COM crystal habit / morphology” value ([2]; SEM) was “polydisperse distribution of crystals”.

For “AADAAAAADDAAAADAAA (Synthesized Calcium oxalate monohydrate inhibitory polypeptide) [D2]”, the “CHT (hr), crystallization half-time” value [3] was 3.533 h.

For “ADAAADAADAADDAADAA (Synthesized Calcium oxalate monohydrate inhibitory polypeptide) [D3]”, the “CHT (hr), crystallization half-time” value [3] was 4.142 h.

In the case of “ADAAADDAAAAAAAADAA (Synthesized Calcium oxalate monohydrate inhibitory polypeptide) [D7]”, the “CHT (hr), crystallization half-time” value [3] was 5.771 h, the “percent reduction in COM growth rate” value [1] was less than 1% and the “[100] thickness of hexagonal platelets relative to control” value ([2]; SEM, 20 μg/ml peptide) was “decreased the [100] thickness of hexagonal platelets by nearly a factor of two”.

With “ADAAADDAAADAAAADAA (Synthesized Calcium oxalate monohydrate inhibitory polypeptide) [D8]” the “CHT (hr), crystallization half-time” value [3] was 4.792 h, the “percent reduction in COM growth rate” value [1] was roughly 6% and the “increase in peptide efficacy on replacing L-Ala spacer with L-Asp binder (relative to peptide D7)” value [1] was “an order of magnitude increase in efficacy”. The “percentage of diamond-shaped crystals in total crystal population” value ([2]; 20 μg/ml peptide, 60° C. for 3 days, optical microscopy, average of three experiments) was “largest populations of diamond-shaped crystals” and the “population of diamond crystals on doubling peptide concentration” value ([2]; concentration increased from 20 to 40 μg/ml) was “did not observe an appreciable increase in the population of diamond crystals”.

For “ADAAADDAAADAAADDAA (Synthesized Calcium oxalate monohydrate inhibitory polypeptide) [D9]”, the “CHT (hr), crystallization half-time” value [3] was 7.277 h, the “percent reduction in COM growth rate” value [1] was 40% and the “% inhibition” value [1, 5] was 36 ± 8%. For the same substance, the “increase in peptide efficacy on replacing L-Ala spacer with L-Asp binder (relative to peptide D7)” value [1] was roughly 70.

For “ADAAADDDAAADAAADDD (Synthesized Calcium oxalate monohydrate inhibitory polypeptide) [D6]”, the “CHT (hr), crystallization half-time” value [3] was 5.041 h and the “factor of increase of the [001] length of hexagonal COM crystals relative to the control” value ([2]; 20 μg/ml peptide) was 1.5.

For “ADAADAAADAADDAADAA (Synthesized Calcium oxalate monohydrate inhibitory polypeptide) [D10]”, the “CHT (hr), crystallization half-time” value [3] was 6.054 h and the “% inhibition” value [1, 5] was 36 ± 5%.

For “ADAADDAAAAAADAADAA (Synthesized Calcium oxalate monohydrate inhibitory polypeptide) [D11]”, the “CHT (hr), crystallization half-time” value [3] was 5.767 h and the “COM crystal habit / morphology” value ([2]; SEM) was “large {121} surface area”.

For “ADADADADADADADADAD (Synthesized Calcium oxalate monohydrate inhibitory polypeptide) [D13]”, the “CHT (hr), crystallization half-time” value [3] was 8.114 h.

In the case of “ADDAADAADAADDAADDA (Synthesized Calcium oxalate monohydrate inhibitory polypeptide) [D12]”, the “CHT (hr), crystallization half-time” value [3] was 7.135 h.

In the case of “DDDAAAAADDDAAAAADD (Synthesized Calcium oxalate monohydrate inhibitory polypeptide) [D1]”, the “CHT (hr), crystallization half-time” value [3] was 6.482 h, the “factor of increase of the [001] length of hexagonal COM crystals relative to the control” value ([2]; 20 μg/ml peptide) was 2.0 and the “COM crystal habit / morphology” value ([2]; SEM) was “small {121} surface area”.

From patent US10246489B2, “Peptide inhibitors of calcium oxalate monohydrate crystallization and uses thereof” (UNIVERSITY OF HOUSTON, priority 2013, dated 2019)
